Results as given in patent publication US12662491B2 (Redona Therapeutics, Inc., priority 2020, dated 2026).

biological target: T1, Zcchc11 enzyme (Homo sapiens, UniProt Q5TAX3); assay: TUTase assay (Zcchc11 assay, Lin28a-dependent polyuridylation of pre-let-7); format: biochemical; details: Lin28a-dependent Zcchc11 (Z11) TUTase activity; read-out: Potency Lin28a-dep Z11 IC50
T1 construct: made in house; host or cells: HEK293 cells (Zcchc11); E. coli Rosetta II (LIN28A)
T1 sequence (Q5TAX3 212-1420): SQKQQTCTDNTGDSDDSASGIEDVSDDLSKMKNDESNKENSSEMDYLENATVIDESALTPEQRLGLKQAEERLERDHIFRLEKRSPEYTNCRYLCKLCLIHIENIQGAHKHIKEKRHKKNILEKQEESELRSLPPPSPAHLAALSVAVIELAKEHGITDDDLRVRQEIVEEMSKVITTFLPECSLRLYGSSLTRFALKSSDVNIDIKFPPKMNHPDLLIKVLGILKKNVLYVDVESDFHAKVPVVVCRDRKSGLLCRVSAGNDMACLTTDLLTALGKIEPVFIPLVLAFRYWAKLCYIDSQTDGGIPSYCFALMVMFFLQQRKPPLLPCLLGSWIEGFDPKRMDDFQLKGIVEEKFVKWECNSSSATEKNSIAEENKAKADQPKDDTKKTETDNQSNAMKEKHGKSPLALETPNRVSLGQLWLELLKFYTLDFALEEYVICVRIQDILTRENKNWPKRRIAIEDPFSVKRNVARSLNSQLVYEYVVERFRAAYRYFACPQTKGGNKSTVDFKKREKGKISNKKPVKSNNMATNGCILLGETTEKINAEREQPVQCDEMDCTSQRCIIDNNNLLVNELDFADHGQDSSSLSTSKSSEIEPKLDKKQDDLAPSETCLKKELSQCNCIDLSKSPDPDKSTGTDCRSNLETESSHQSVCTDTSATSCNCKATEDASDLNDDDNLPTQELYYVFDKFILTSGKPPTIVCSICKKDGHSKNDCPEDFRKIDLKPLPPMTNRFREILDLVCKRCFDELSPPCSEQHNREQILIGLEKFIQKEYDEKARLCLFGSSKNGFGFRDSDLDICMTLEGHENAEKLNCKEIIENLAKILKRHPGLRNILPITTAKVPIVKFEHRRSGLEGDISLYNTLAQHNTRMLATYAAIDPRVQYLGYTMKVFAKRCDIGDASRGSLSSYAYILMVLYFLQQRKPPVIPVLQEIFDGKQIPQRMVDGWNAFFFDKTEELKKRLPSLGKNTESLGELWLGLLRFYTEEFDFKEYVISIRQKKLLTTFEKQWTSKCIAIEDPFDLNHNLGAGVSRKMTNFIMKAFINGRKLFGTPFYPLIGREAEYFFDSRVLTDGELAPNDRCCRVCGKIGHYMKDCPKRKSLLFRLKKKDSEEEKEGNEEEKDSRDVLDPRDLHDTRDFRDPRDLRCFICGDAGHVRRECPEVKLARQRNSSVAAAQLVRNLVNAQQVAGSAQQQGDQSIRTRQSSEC
Experimental: The purpose of the Zcchc11 assay is to determine compound potency against Zcchc11 enzyme through the measurement of IC50. Compound inhibition is measured as a function of polyuridine tails added to RNA substrates in the presence of active TUTase, UTP, and inhibitor. The Zcchc11 assay was done in a black, non-binding, 384 well plate (Corning #3575). All steps were performed at room temperature. For a typical assay, a 29 ul aliquot of assay buffer (50 mM HEPES pH 7.3, 150 mM KCl, 5 mM MgCl2, 10 mM DTT, 0.01% Triton X-100, 40 U/ml RNAsin (Promega)) containing LIN28A protein (final concentration: 10 nM) is added to each well. Next, 1 ul of compound in 100% DMSO is transferred from a compound dilution plate in which the compound is serially diluted. Next, 10 ul of a 5× mix of Zcchc11 and RNA substrate (5′-fluorescein labeled pre-let-7 miRNA (Dharmacon)) is added (final concentrations: 0.2 nM and 2 nM, respectively). The plate is placed on a plate shaker for 30 seconds to produce mixing, then incubated for 30 minutes. Next, 10 ul of a 5× mix of UTP and the quenching probe (3′-rhodamine labeled A20, polyadenosine nucleotide, (IDT)) is added (final concentrations: 5 uM and 4 nM, respectively). The plate is immediately placed in a Biotek Cytation 5 plate reader, and the time-dependent decrease in fluorescein fluorescence resulting from annealing of the A20 probe to polyuridine tails is recorded, using the kinetics mode of the reader. Reaction rates are obtained using linear fits to the early portion of progress curves. IC50 values are calculated using a four parameter fit with 100% enzyme activity determined from the DMSO control and 0% activity from control samples lacking UTP.
The LIN28A protein was expressed in and purified from E. coli, strain Rosetta II (Novagen). The entire coding sequence of the human, wild-type protein was cloned into expression vector pMAL (NEB), down-stream from a maltose-binding protein tag. The linker sequence contained a TEV protease cleavage site. The protein was purified from bacterial extracts using an MBP-Trap column (GE Healthcare Life Sciences), followed by tag cleavage and removal of the tag by ion-exchange chromatography. When necessary, contaminating bacterial RNA was removed using the procedure describe by Faehnle C R. et al. (2017) Multi-domain utilization by TUT4 and TUT7 in control of let-7 biogenesis. Nat Struct Mol Biol, 24:658-665.
The Zcchc11 protein was expressed in and purified from HEK293 cells. A truncated protein comprising residues 212-1420 of the human sequence was cloned into expression vector pTT5 (Viva Biotech) down-stream from a maltose-binding protein tag. The linker sequence contained a TEV protease cleavage site, and a FLAG tag was added to the carboxyl terminus of the protein. The protein was purified from cell extracts using an MBP-Trap column (GE Healthcare Life Sciences), followed by tag cleavage and further enrichment of the full length construct using anti-FLAG affinity media (Sigma Aldrich).
“+” represents an IC50 value that is greater than 50 μM; “++” represents an IC50 value that is greater than 10 μM and equal to or less than 50 μM; “+++” represents an IC50 value that is greater than 1 μM and equal to or less than 10 μM; and “++++” represents an IC50 value that is equal to or less than 1 μM.

SMILES | IC50 [nM]
O=C(O)c1cn(-c2cnccn2)c2nc(N3CCC[C@@H]3COc3nnccc3Cl)c(Cl)cc2c1=O (racemic) [Compound 193, rac-(R)-6-chloro-7-(2-(((4-chloro-pyridazin-3-yl)oxy)methyl)pyrrolidin-1-yl)-4-oxo-1-(pyrazin-2-yl)-1,4-dihydro-1,8-naphthyridine-3-carboxylic acid] | 1000 to 10000
N#Cc1cc2c(=O)c(C(=O)O)cn(-c3cnc(N4CCC4)cn3)c2nc1N1CCC[C@@H]1COc1ncccc1F (racemic) [Compound 194, rac-(R)-1-(5-(azetidin-1-yl)pyrazin-2-yl)-6-cyano-7-(2-(((3-fluoropyridin-2-yl)oxy)methyl)pyrrolidin-1-yl)-4-oxo-1,4-dihydro-1,8-naphthyridine-3-carboxylic acid] | ≤ 1000
CN(C)C(=O)OC[C@H]1CCCN1c1cc2c(cc1Cl)c(=O)c(C(=O)O)cn2-c1ccc(N2CC(N(C)C)C2)nc1 (racemic) [Compound 195, rac-(R)-6-chloro-1-(6-(3-(dimethyl-amino)azetidin-1-yl)pyridin-3-yl)-7-(2-(((dimethylcarbamoyl)oxy)methyl)pyrrolidin-1-yl)-4-oxo-1,4-dihydro-quinoline-3-carboxylic acid formic acid] | ≤ 1000
COc1ccc(Cl)c(OC[C@H]2CC(C3CCC3)CN2c2cc3c(cc2Cl)c(=O)c(C(=O)O)cn3-c2ccc(N3CC(N(C)C)C3)nc2)n1 (mixture of isomers) [Compound 203, rac-6-chloro-7-((2R)-2-(((3-chloro-6-methoxy-pyridin-2-yl)oxy)methyl)-4-cyclobutyl-pyrrolidin-1-yl)-1-(6-(3-(dimethyl-amino)azetidin-1-yl)pyridin-3-yl)-4-oxo-1,4-dihydro-quinoline-3-carboxylic acid] | ≤ 1000
CN(C)C1CN(c2ccc(-n3cc(C(=O)O)c(=O)c4cc(Cl)c(N5CC(C6CCC6)C[C@@H]5COc5ncccc5Cl)cc43)cn2)C1 (mixture of isomers) [Compound 205, rac-6-chloro-7-((2R)-2-((3-chloropyridin-2-yl)oxy)methyl)-4-cyclobutyl-pyrrolidin-1-yl)-1-(6-(3-(dimethyl-amino)azetidin-1-yl)pyridin-3-yl)-4-oxo-1,4-dihydro-quinoline-3-carboxylic acido-quinoline-3-carboxylic acid] | ≤ 1000
CC(C)C1C[C@H](COc2ncccc2Cl)N(c2cc3c(cc2Cl)c(=O)c(C(=O)O)cn3-c2ccc(N3CC(N(C)C)C3)nc2)C1 (mixture of isomers) [Compound 223, Rac-6-chloro-7-((2R)-2-(((3-chloropyridin-2-yl)oxy)methyl)-4-isopropyl-pyrrolidin-1-yl)-1-(6-(3-(dimethyl-amino)azetidin-1-yl)pyridin-3-yl)-4-oxo-1,4-dihydro-quinoline-3-carboxylic acid] | ≤ 1000
COc1ccc(Cl)c(OC[C@H]2CC(c3ccc(O)nc3)CN2c2cc3c(cc2F)c(=O)c(C(=O)O)cn3-c2ccc(N3CC(N(C)C)C3)nc2)n1 (mixture of isomers) [Compound 224, Formic acid compound with rac-7-((2R)-2-(((3-chloro-6-methoxy-pyridin-2-yl)oxy)methyl)-4-(6-hydroxy-pyridin-3-yl)pyrrolidin-1-yl)-1-(6-(3-(dimethyl-amino)azetidin-1-yl)pyridin-3-yl)-6-fluoro-4-oxo-1,4-dihydro-quinoline-3-carboxylic acid (1:1)] | ≤ 1000
COc1ccc(Cl)c(OC[C@H]2CC(c3ccc(O)nc3)CN2c2cc3c(cc2Cl)c(=O)c(C(=O)O)cn3-c2ccc(N3CC(N(C)C)C3)nc2)n1 (mixture of isomers) [Compound 225, Rac-6-chloro-7-((2R)-2-(((3-chloro-6-methoxy-pyridin-2-yl)oxy)methyl)-4-(6-hydroxy-pyridin-3-yl)pyrrolidin-1-yl)-1-(6-(3-(dimethyl-amino)azetidin-1-yl)pyridin-3-yl)-4-oxo-1,4-dihydro-quinoline-3-carboxylic acid] | ≤ 1000
COc1ccc(Cl)c(OC[C@H]2CC(C(C)C)CN2c2cc3c(cc2Cl)c(=O)c(C(=O)O)cn3-c2ccc(N3CC(N(C)C)C3)nc2)n1 (mixture of isomers) [Compound 227, Rac-6-chloro-7-((2R)-2-(((3-chloro-6-(11-oxidaneyl)pyridin-2-yl)oxy)methyl)-4-isopropyl-pyrrolidin-1-yl)-1-(6-(3-(dimethyl-amino)azetidin-1-yl)pyridin-3-yl)-4-oxo-1,4-dihydro-quinoline-3-carboxylic acid] | ≤ 1000
COc1ccc(Cl)c(OC[C@H]2C[C@@H]3C[C@@H]3N2c2cc3c(cc2F)c(=O)c(C(=O)O)cn3-c2ccnc(N)c2)n1 (racemic) [Compound 230, Rac-1-(2-aminopyridin-4-yl)-7-((1R,3S,5R)-3-(((3-chloro-6-methoxy-pyridin-2-yl)oxy)methyl)-2-azabicyclo [3.1.0]hexan-2-yl)-6-fluoro-4-oxo-1,4-dihydro-quinoline-3-carboxylic acid] | ≤ 1000
COc1ccc(Cl)c(OC[C@H]2C[C@@H]3C[C@@H]3N2c2cc3c(cc2Cl)c(=O)c(C(=O)O)cn3-c2ccnc(N)c2)n1 (racemic) [Compound 231, Rac-1-(2-aminopyridin-4-yl)-6-chloro-7-((1R,3S,5R)-3-(((3-chloro-6-methoxy-pyridin-2-yl)oxy)methyl)-2-azabicyclo [3.1.0]hexan-2-yl)-4-oxo-1,4-dihydro-quinoline-3-carboxylic acid] | ≤ 1000
COc1ccc(Cl)c(OC[C@H]2C[C@H]3C[C@H]3N2c2cc3c(cc2F)c(=O)c(C(=O)O)cn3-c2ccc(N3CC(N(C)C)C3)nc2)n1 (racemic) [Compound 234, Rac-7-((1R,3R,5R)-3-(((3-chloro-6-methoxy-pyridin-2-yl)oxy)methyl)-2-azabicyclo [3.1.0]hexan-2-yl)-1-(6-(3-(dimethyl-amino)azetidin-1-yl)pyridin-3-yl)-6-fluoro-4-oxo-1,4-dihydro-quinoline-3-carboxylic acid] | ≤ 1000
